The text below walks through data of patent US20260297095A1, “NOVEL PYRROLOTRIAZINE DERIVATIVE AND USE THEREOF” (Pelemed Co., Ltd., priority 2024, published 2026).

The target in one assay is YES1 kinase (Homo sapiens, UniProt P07947). As to the kind of experiment: YES1 kinase inhibition, ADP Glo assay (Promega). It is filed as biochemical. The conditions noted are these: for inhibition at 0.01 µM: compound 10 nM, read-out: YES1 enzyme, % inhibition, 10 nM; for inhibition at 0.1 µM: compound 100 nM, read-out: YES1 enzyme, % inhibition, 100 nM. The method, then: To evaluate the inhibitory activity against YES1 kinase of the compound according to the present invention, ADP Glo assay (Promega) was used, and the following method was performed with reference to the Promega kinase enzyme system protocol. To proceed with the experiment, buffers A-F and compound dilution plates were required.
YES1 kinase, sequence (P07947 whole entry): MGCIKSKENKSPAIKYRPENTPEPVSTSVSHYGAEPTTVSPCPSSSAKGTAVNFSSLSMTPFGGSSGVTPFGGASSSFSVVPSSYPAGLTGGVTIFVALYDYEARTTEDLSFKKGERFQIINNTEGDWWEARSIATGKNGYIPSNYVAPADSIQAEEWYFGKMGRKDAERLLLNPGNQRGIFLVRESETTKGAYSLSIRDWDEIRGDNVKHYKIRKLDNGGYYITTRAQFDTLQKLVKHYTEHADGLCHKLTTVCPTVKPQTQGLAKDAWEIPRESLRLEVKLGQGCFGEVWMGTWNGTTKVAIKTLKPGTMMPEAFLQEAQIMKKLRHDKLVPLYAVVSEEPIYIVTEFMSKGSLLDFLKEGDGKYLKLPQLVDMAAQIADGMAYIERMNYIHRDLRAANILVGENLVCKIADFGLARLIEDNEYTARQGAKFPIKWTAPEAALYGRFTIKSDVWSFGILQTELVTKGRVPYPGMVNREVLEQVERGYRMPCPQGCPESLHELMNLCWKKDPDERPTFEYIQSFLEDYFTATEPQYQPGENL
To prepare A.4X reaction buffer, 800 μl of 5X reaction buffer and 200 μl of distilled water were used. To prepare B.4X kinase buffer, 996.6 μl of A.4X reaction buffer, 2 μl of 0.1M DTT, and 3.2 μl of 2.5M MnCl2 were added and mixed. To prepare C.1X kinase buffer (containing 5% DMSO) used for compound dilution, 250 μl of B.4X kinase buffer, 700 μl of distilled water, and 50 μl of DMSO were added, so that the final DMSO concentration became 5%. Then, 10 mM compounds were diluted 100-fold to prepare 100 μM solutions, and then D.5X inhibitor solution was prepared so that the compound concentration became 5 uM. Using a 96-well plate, 5 μM compounds were 3-fold diluted using C.1X kinase buffer (containing 5% DMSO) to prepare compound plates with concentrations ranging from 0.25 μM to 5 μM. The resulting plates were stored at room temperature. To prepare E. 2.5X ATP/substrate mixture, 50 μl of B.4X kinase buffer, 50 μl of […], and 100 μl of substrate were mixed. To prepare F YES1 kinase enzyme solution, 35 μl of B.4X kinase buffer, 0.4 μl of YES1 enzyme, and 104.6 μl of distilled water were used. Once the diluted compound plates, ATP/substrate mixture, and YES1 kinase solution were all prepared, 3 μL each was transferred from the diluted compound plate to a luciferase 96-well white plate (Since the total volume of the ATP/substrate and YES1 kinase solution that reacts with the compound is 15 μL, the compounds were diluted 5-fold, making the final compound concentration 0.05 μM-1 μM). Then, 6 μL of F. YES1 Kinase Enzyme Solution was transferred to each well, pipetted 10 times to mix, and incubated at room temperature in a shaker for 10 minutes. Next, 6 μL of E. 2.5X ATP/Substrate Mixture was transferred to each well, pipetted 10 times to mix, and centrifuged at 12,000 rpm for 5 minutes. The plate was then incubated in a shaker at room temperature for 40 minutes. After that, 15 μL of ADP-Glo Reagent, dissolved at room temperature, was added to each well, pipetted 10 times, and incubated in a shaker at room temperature for 40 minutes. Finally, 30 μL of Kinase Detection Reagent, dissolved at room temperature, was added, pipetted 10 times, incubated in a shaker at room temperature for 30 minutes. Luminescence was measured using a luminescence plate reader. Then, the background value was subtracted from all measured values, and the YES1 kinase activity at compound concentrations of 1 nM, 10 nM, and 100 nM was calculated. The measured values were calculated as percentages using the average value of the negative control. Graphs were drawn using GraphPad Prism, and the enzyme activity was calculated as a percentage of YES1 kinase inhibition at compound concentrations of 1 nM, 10 nM, and 100 nM. IC50 values were obtained using Microsoft Excel.

Assay [1] has as its system KYSE-70 esophageal cancer cell line. As to the kind of experiment: Cell growth inhibition of KYSE-70 (Sulforhodamine B). Format: cell-based. The settings on record: Homo sapiens; KYSE-70, 72 hours; read-out: KYSE70 GI50. The procedure:
The cell line according to the present invention was selected as KYSE-70, an esophageal cancer cell line in which YES1 is amplified. The evaluation of cell growth inhibition was performed as follows.
KYSE-70 was cultured in RPMI-1640 (Capricorn) supplemented with 10% FBS (Cellgro). The cells were seeded 24 hours prior to compound treatment, into three 96-well F-bottom clear plates (Greiner), with 7,500 cells per well in 180 μL of medium. The 10 mM compound was diluted 100-fold in medium to prepare a 100 μM compound, which was then placed into a 96-well plate and further 3-fold diluted in medium to prepare a compound plate with concentrations ranging from 0.046 μM to 100 μM. 20 μL of each compound from the drug plate was added to the cell-seeded plates to achieve final concentrations of 0.0046 μM to 10 μM. At the same time, 50 μL of 33% trichloroacetic acid was injected into one plate and the plate was fixed by incubating at 4° C. This was referred to as the Do plate. Viable cells were measured 72 hours after compound treatment by injecting 50 μL of 33% trichloroacetic acid and incubating at 4° C. for more than 1 hour to fix the cells. This was referred to as the D3 plate. After the Do plate and D3 plates were washed 5 times with sterile water, 100 μL of 0.04% Sulforhodamine B solution in 1% acetic acid was added and reacted for 1 hour to stain the cells. After staining, the plates were washed 4 times with 1% acetic acid solution and completely dried. Then, the Sulforhodamine B bound to cellular proteins was completely dissolved with 10 mM Tris base solution (pH 10.5). The absorbance was measured at a wavelength of 510 nm using a microplate reader (TECAN, sunrise microplate reader). The analysis was performed using GraphPad Prism. The average absorbance of the Do plate was set to 0%, and the average absorbance of the negative control of the D3 plate was set to 100%, from which a graph was drawn and the GI50 values were calculated. Each test was performed twice.

Molecules are shown by their SMILES.

In the case of `COc1cc(-c2cc(N3CC[C@H](N(C)C)C3)n3ncnc(N)c23)ccc1NC(=O)OC(C)(C)C` [Example 11, tert-butyl (S)-(4-(4-amino-7-(3-(dimethylamino)pyrrolidin-1-yl)pyrrolo[2,1-f][1,2,4]triazin-5-yl)-2-methoxyphenyl)carbamate], on YES1 kinase, the inhibition at 0.01 µM was 21% and the inhibition at 0.1 µM was determined as 44%. Further, the 50% growth inhibitory concentration (GI50) in assay [1] lay in the range of 0.1 to 1 µM.

Regarding `CCNC1CCN(c2cc(-c3ccc(NC(=O)OC(C)(C)C)c(OC)c3)c3c(N)ncnn23)CC1` [Example 92, tert-butyl (4-(4-amino-7-(4-(ethylamino)piperidin-1-yl)pyrrolo[2,1-f][1,2,4]triazin-5-yl)-2-methoxyphenyl)carbamate], at YES1 kinase (class symbols, read-out: YES1 enzyme, IC50), the IC50 is no more than 0.1 µM. Moreover, at YES1 kinase, the inhibition at 0.01 µM was determined as 66% and the inhibition at 0.1 µM was 81%. In addition, in assay [1], the 50% growth inhibitory concentration (GI50) fell in the range of 0.1 to 1 µM. Turning to `CCC1(N)CCN(c2cc(-c3ccc(NC(=O)OC(C)(C)C)c(OC)c3)c3c(N)ncnn23)CC1` [Example 82, tert-butyl (4-(4-amino-7-(4-amino-4-ethylpiperidin-1-yl)pyrrolo[2,1-f][1,2,4]triazin-5-yl)-2-methoxyphenyl)carbamate], the GI50 in assay [1] was no more than 0.1 µM. The same measure, in the same setting: for `COc1cc(-c2cc(N[C@@H]3CC[C@H](CN)C3)n3ncnc(N)c23)ccc1NC(=O)OC(C)(C)C` [Example 111, tert-butyl (4-(4-amino-7-(((1R,3S)-3-(aminomethyl)cyclopentyl)amino)pyrrolo[2,1-f][1,2,4]triazin-5-yl)-2-methoxyphenyl)carbamate] the value was greater than 10 µM.

As for `COc1cc(-c2cc(CCN3CCC(N(C)C)CC3)n3ncnc(N)c23)ccc1NC(=O)OC(C)(C)CF` [Example 69, 1-fluoro-2-methylpropan-2-yl (4-(4-amino-7-(2-(4-(dimethylamino)piperidin-1-yl)ethyl)pyrrolo[2,1-f][1,2,4]triazin-5-yl)-2-methoxyphenyl)carbamate], in assay [1], the GI50 was no more than 0.1 µM. The same measure, in the same setting: the same measure for `COc1cc(-c2c(C)c(N3CCC(N)CC3)n3ncnc(N)c23)ccc1NC(=O)OC(C)(C)CF` [Example 60, 1-fluoro-2-methylpropan-2-yl (4-(4-amino-7-(4-aminopiperidin-1-yl)-6-methylpyrrolo[2,1-f][1,2,4]triazin-5-yl)-2-methoxyphenyl)carbamate]: no more than 0.1 µM; for `CNC1CCN(CCc2cc(-c3ccc(NC(=O)OC(C)(C)CF)c(OC)c3)c3c(N)ncnn23)CC1` [Example 67, 1-fluoro-2-methylpropan-2-yl (4-(4-amino-7-(2-(4-(methylamino)piperidin-1-yl)ethyl)pyrrolo[2,1-f][1,2,4]triazin-5-yl)-2-methoxyphenyl)carbamate]: 0.1 to 1 µM.

For `COc1cc(-c2cc(N3CCC(N)CC3)n3ncnc(N)c23)ccc1NC(=O)OC1(C)CC1` [Example 71, 1-methylcyclopropyl (4-(4-amino-7-(4-aminopiperidin-1-yl)pyrrolo[2,1-f][1,2,4]triazin-5-yl)-2-methoxyphenyl)carbamate], the GI50 in assay [1] was no more than 0.1 µM. Still for that read-out and setting: the same measure for `COc1cc(-c2c(I)c(N3CCC(N)CC3)n3ncnc(N)c23)ccc1NC(=O)OC(C)(C)C` [Example 126, tert-butyl (4-(4-amino-7-(4-aminopiperidin-1-yl)-6-iodopyrrolo[2,1-f][1,2,4]triazin-5-yl)-2-methoxyphenyl)carbamate]: 0.1 to 1 µM; for `COc1cc(-c2cc(N3CCC(N)C4(CC4)C3)n3ncnc(N)c23)ccc1NC(=O)OC(C)(C)C` (centres unmarked) [Example 80, tert-butyl (4-(4-amino-7-(8-amino-5-azaspiro[2.5]octan-5-yl)pyrrolo[2,1-f][1,2,4]triazin-5-yl)-2-methoxyphenyl)carbamate]: 0.1 to 1 µM; for `CNC1CCN(CCc2c(C)c(-c3ccc(NC(=O)OC(C)(C)CF)c(OC)c3)c3c(N)ncnn23)CC1` [Example 64, 1-fluoro-2-methylpropan-2-yl (4-(4-amino-6-methyl-7-(2-(4-(methylamino)piperidin-1-yl)ethyl)pyrrolo[2,1-f][1,2,4]triazin-5-yl)-2-methoxyphenyl)carbamate]: no more than 0.1 µM.

As for `COc1cc(-c2cc(N3CCC(N(C)C)CC3)n3ccnc(N)c23)ccc1NC(=O)OC(C)(C)C` [Example 134, tert-butyl (4-(1-amino-6-(4-(dimethylamino)piperidin-1-yl)pyrrolo[1,2-a]pyrazin-8-yl)-2-methoxyphenyl)carbamate], in assay [1], the GI50 was no more than 0.1 µM. Still for that read-out and setting: for `COc1cc(-c2cc(N3CCC(N)CC3)n3ccnc(N)c23)ccc1NC(=O)OC(C)(C)C` [Example 132, tert-butyl (4-(1-amino-6-(4-aminopiperidin-1-yl)pyrrolo[1,2-a]pyrazin-8-yl)-2-methoxyphenyl)carbamate] the value was 0.1 to 1 µM; for `CNCCC1CCN(c2c(F)c(-c3ccc(NC(=O)OC(C)(C)C)c(OC)c3)c3c(N)ncnn23)CC1` [Example 131, tert-butyl (4-(4-amino-6-fluoro-7-(4-(2-(methylamino)ethyl)piperidin-1-yl)pyrrolo[2,1-f][1,2,4]triazin-5-yl)-2-methoxyphenyl)carbamate], no more than 0.1 µM; for `CNC(=O)C1CCN(c2cc(-c3ccc(NC(=O)OC(C)(C)C)c(OC)c3)c3c(N)ncnn23)CC1` [Example 95, tert-butyl (4-(4-amino-7-(4-(methylcarbamoyl)piperidin-1-yl)pyrrolo[2,1-f][1,2,4]triazin-5-yl)-2-methoxyphenyl)carbamate], 0.1 to 1 µM. In the case of `CNCCC1CCN(c2c(C)c(-c3ccc(NC(=O)OC(C)(C)CF)c(OC)c3)c3c(N)ncnn23)CC1` [Example 63, 1-fluoro-2-methylpropan-2-yl (4-(4-amino-6-methyl-7-(4-(2-(methylamino)ethyl)piperidin-1-yl)pyrrolo[2,1-f][1,2,4]triazin-5-yl)-2-methoxyphenyl)carbamate], the concentration for 50% growth inhibition (GI50) in assay [1] was no more than 0.1 µM. Still for that read-out and setting: the same measure for `CNC1CCN(c2cc(-c3ccc(NC(=O)OC(C)(C)C)c(OC)c3)c3c(N)nccn23)CC1` [Example 133, tert-butyl (4-(1-amino-6-(4-(methylamino)piperidin-1-yl)pyrrolo[1,2-a]pyrazin-8-yl)-2-methoxyphenyl)carbamate]: 0.1 to 1 µM; for `COc1cc(-c2cc(N3CCC(C)(NC(C)=O)CC3)n3ncnc(N)c23)ccc1NC(=O)OC(C)(C)C` [Example 96, tert-butyl (4-(4-amino-7-(4-acetamido-4-methylpiperidin-1-yl)pyrrolo[2,1-f][1,2,4]triazin-5-yl)-2-methoxyphenyl)carbamate]: greater than 10 µM.
